According to patent US20140128431A1, “PHARMACEUTICAL COMPOSITION WITH IMPROVED BIOAVAILABILITY, SAFETY AND TOLERABILITY” (priority 2012, published 2014):

Tests used:
[1] = Caco-2 assay (permeability); assay type: in vitro ADME; conditions: human
Excerpt: (§1) The compound is moderately permeable as determined with the Caco-2 assay value of 4.5×10-6 cm/s. Targeted high doses/frequency of dosing for this series of compounds, led to the categorization of Compound A as BCS class IV compound (low solubility/low permeability).

[2] = Aqueous solubility of crystalline Compound A at physiological pHs; assay type: physicochemical; conditions: aqueous media at physiological pHs (pH 1.5-8.0), aqueous buffer, crystalline form
Excerpt: as §1

COc1ccc(-c2cc(C(C)(C)C)c(OC)c3cc(-c4ccc(NS(C)(=O)=O)cc4)cnc23)c(=O)[nH]1 [Compound A, N-{4-[6-tert-Butyl-5-methoxy-8-(6-methoxy-2-oxo-1,2-dihydro-pyridin-3-yl)-quinolin-3-yl]-phenyl}-methanesulfonamide]
Papp [1]: 4.5 ×10⁻⁶ cm/s | solubility [2]: < 1 µg/mL
